We go through two compounds from paper PMC11720742, “The Ivermectin Related Compound Moxidectin Can Target Apicomplexan Importin α and Limit Growth of Malarial Parasites” (Cells, 2025).

Values joined by “and” are separate entries in the source; they are usually repeats but may differ in a detail not shown here. Equal entries are not always repeated. Where two headings read alike, the source gives them in different places.

A word on the IC50: it is the point on the concentration scale where inhibition reaches its midpoint. What is called Kd is the equilibrium constant for the complex coming apart. A high value points to a looser complex. A word on the CC50: it is the concentration giving 50% cytotoxicity. High values mean lower toxicity to the cells, low ones greater toxicity to the cells.

One data set has as its target T1, MmΔIBBIMPα:T-ag-NLS-GFP (Mus musculus, UniProt P52293).
T1 construct: made in house
In words: AlphaScreen binding assay, inhibition of MmΔIBBIMPα binding to T-ag-NLS-GFP. A general note: Bead proximity is the source of the signal in Alpha formats.

For a further data set, the target named is PfIMPα:MmIMPβ1 (Plasmodium falciparum, UniProt Q8IAW0). Description: AlphaScreen binding assay, inhibition of PfIMPα binding to MmIMPβ1. As to the method:
(§1) IC50 analysis was performed in quadruplicate using an AlphaScreen binding assay as previously, using bacterially expressed glutathione S-transferase (GST)-C-terminally tagged PfIMPα and TgIMPα proteins, as well as SV40 T-ag-NLS-GFP fusion protein and MmIMPβ1 [11, 41]. As previously, nickel-acceptor and streptavidin-donor beads were used. The AlphaScreen signal was measured on a Perkin Elmer plate reader, and IC50 plots drawn using GraphPad Prism 9.0.2 (San Diego, CA, USA).
(§2) Non-linear regression analysis was performed in GraphPad Prism 9.2.0 (San Diego, CA, USA) to fit four parameter dose–response curves using the formula: y = a + ((b − a)/(1 + 10^(Log(c) − x) × d)), where a and b are the minimum and maximum asymptotes respectively, c is the half-maximal inhibitory concentration value (IC50), and d is the slope at the steepest part of the curve (the Hill slope).

A further data set deals with P. falciparum 3D7 strain. Description: Drug susceptibility assay for P. falciparum using HRP2 sandwich ELISA. It counts as cell-based. Particulars: read-out: IC50 inhibition of P. falciparum parasites in culture. The method, then:
The P. falciparum 3D7 strain was cultured and maintained according to the standard procedures with minor modifications. Cultures were maintained in RPMI 1640 (GibcoTM, Waltham, MA, USA) supplemented with 0.5% Albumax (GibcoTM), 50 mg/L hypoxanthine (Sigma-Aldrich), 2 gm/L D-glucose (Sigma-Aldrich), 2 gm/L sodium bicarbonate (Sigma-Aldrich), and 56 mg/L of gentamicin (Abbott, Chicago, IL, USA). Blood for parasite cultures was procured from volunteer blood donors with approval from the Institute Ethical Committee.
Samples from the continuous culture of P. falciparum were synchronised to obtain predominant rings of 0.25% parasitemia at 3% haematocrit. Compounds were made at a stock concentration of 10 mM in 100% DMSO, with the FDA-approved antimalarial dihydroartemisinin (a kind gift from IPCA Laboratories, Mumbai, India) as a control. Compound dilutions were made in RPMI 1640 to obtain the desired final test concentrations for the IC50 analysis.
The HRP2-sandwich ELISA assay was performed according to the standard protocol. Briefly, the PfHRP2 protein concentration in the culture wells, indicative of the level of parasitemia, is measured using a sandwich ELISA technique. Serial 2-fold dilutions of compounds (25 µL/well) were manually dispensed into standard 96-well microculture plates (Eppendorf). Subsequently, 200 µL of P. falciparum culture at 0.25% parasitemia (3% haematocrit) was added to each well. The plates were then incubated for 72 h at 37 °C in 5% CO2 in a humidified incubator. Plates were then subjected to freeze–thaw to achieve complete haemolysis. PfHRP2 levels in control and test samples were measured using a horseradish peroxidase enzyme-linked immunosorbent assay at 450 nm. GraphPad Prism 9.2.0 was used to perform non-linear regression analysis to determine the IC50 values.
as §2

In data set [1] the target is T2, TgIMPα (Toxoplasma gondii, UniProt A0A125YID0). In words: Intrinsic tryptophan fluorescence assay, TgIMPα. It counts as binding. The method, then:
(§3) Tryptophan fluorescence spectroscopy experiments were performed using a JASCO Fluorescence Spectrophotometer (JASCO, Hachioji, Tokyo, Japan) (0.5 mL quartz cuvette), with a fixed excitation wavelength of 295 nm and emission spectra collected between 310 and 400 nm with a slit width of 5 nm at 25 °C. Increasing concentrations of compounds in DMSO were incubated with the IMPαs (1 µM) in PBS for 5 min at room temperature prior to measurement. Data from three independent experiments were analysed using GraphPad Prism 10 (San Diego, CA, USA). Non-linear regression analysis was used to fit the one-site binding curves using the equation: y = Bmax * x/(Kd + x), where Bmax represents the maximum binding capacity and Kd is the dissociation constant, reflecting the concentration of ligand at which half-maximal binding is achieved.

The next data set has as its target TgIMPα:MmIMPβ1 (Toxoplasma gondii, UniProt A0A125YID0). Description: AlphaScreen binding assay, inhibition of TgIMPα binding to MmIMPβ1. The method, then: as §1, §2
The target of the next data set is PfIMPα:TGS1-NLS-GFP (Plasmodium falciparum, UniProt Q8IAW0). Description: AlphaScreen binding assay, inhibition of PfIMPα binding to TGS1-NLS-GFP. Set-up: species or system P. falciparum.
Sequence of PfIMPα:TGS1-NLS-GFP (Q8IAW0 entry or part of it): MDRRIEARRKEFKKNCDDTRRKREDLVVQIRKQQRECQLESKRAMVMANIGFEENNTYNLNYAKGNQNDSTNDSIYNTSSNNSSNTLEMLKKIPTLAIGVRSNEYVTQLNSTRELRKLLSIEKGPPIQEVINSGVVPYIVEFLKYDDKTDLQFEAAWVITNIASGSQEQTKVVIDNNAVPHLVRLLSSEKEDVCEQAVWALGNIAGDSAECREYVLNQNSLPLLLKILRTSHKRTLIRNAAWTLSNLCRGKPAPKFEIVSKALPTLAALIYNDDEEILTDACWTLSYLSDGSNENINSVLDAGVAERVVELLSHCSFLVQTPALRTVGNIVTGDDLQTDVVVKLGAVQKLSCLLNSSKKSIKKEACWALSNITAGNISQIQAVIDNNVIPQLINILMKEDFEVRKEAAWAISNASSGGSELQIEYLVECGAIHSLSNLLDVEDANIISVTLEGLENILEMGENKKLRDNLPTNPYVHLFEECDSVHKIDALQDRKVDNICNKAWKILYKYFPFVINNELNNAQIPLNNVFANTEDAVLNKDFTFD
Data set [2] deals with T2, TgIMPα. In words: Far-UV CD spectroscopy, TgIMPα. The data set is classed as binding. Particulars: 30 or 80 μM compound. As to the method: (§4) CD spectroscopy experiments were carried out to assess direct binding of moxidectin and ivermectin to different IMPαs as described. CD spectra at […] protein concentration were recorded from 200–260 nm using a Jasco CD spectrometer (Jasco, Easton, MD, USA) in the absence and presence of 30 or 80 μM ivermectin or moxidectin, with percentage α-helix content estimated from the ellipticity at 222 nm as described using the CD Multivariate secondary structure estimation analysis program.

In data set [3] the target is T3, PfIMPα (Plasmodium falciparum, UniProt Q8IAW0). Description: Intrinsic tryptophan fluorescence assay, PfIMPα. It counts as binding. The method, then:
as §3

For data set [4], the system named is T. gondii RH strain expressing a luciferase reporter (RH-Fluc) tachyzoites. In words: T. gondii tachyzoite growth inhibition assay (luciferase) in HFF host cells. It counts as cell-based. Particulars: 48 h, luminescence, mean ± SD (n = 3). As to the method:
A T. gondii RH strain expressing a luciferase reporter (RH-Fluc) was used to assess the effect of the inhibitors on growth as described. T. gondii tachyzoites were maintained and cultured at 37 °C in 5% CO2 in a humidified incubator using primary human foreskin fibroblasts (HFF, ATCC) maintained in Dulbecco’s modified Eagle medium (DMEM) (GibcoTM, Waltham, MA, USA) supplemented with 3.7 g/L sodium bicarbonate and 2.38 g/L HEPES, 10% Cosmic Calf serum (HycloneTM, Logan, UT, USA) and 20 mg/L gentamicin [46, 47]. Growth inhibition was monitored by luminescence, where 100 μL of culture medium without or with inhibitors, followed by 100 µL of DMEM containing 5000 parasites, were added to confluent monolayers of HFF cells in 96-well culture dishes (Eppendorf, Hamburg, Germany). After 48 h, 150 µL of the culture medium was discarded from each well, and 10 µL lysis buffer was added to lyse the parasites, followed by 50 μL of 2× luciferase assay reagent (Promega, Madison, WI, USA). Luminescence was then measured directly for 10 s using a Varioskan™ LUX multimode microplate reader (Thermo Fisher Scientific, Waltham, MA, USA). […]

For another data set, the target named is TgIMPα:T-ag-NLS-GFP (Toxoplasma gondii, UniProt A0A125YID0). Description: AlphaScreen binding assay, inhibition of TgIMPα binding to T-ag-NLS-GFP. The method, then: as §1, §2
Sequence of TgIMPα:T-ag-NLS-GFP (A0A125YID0 entry or part of it): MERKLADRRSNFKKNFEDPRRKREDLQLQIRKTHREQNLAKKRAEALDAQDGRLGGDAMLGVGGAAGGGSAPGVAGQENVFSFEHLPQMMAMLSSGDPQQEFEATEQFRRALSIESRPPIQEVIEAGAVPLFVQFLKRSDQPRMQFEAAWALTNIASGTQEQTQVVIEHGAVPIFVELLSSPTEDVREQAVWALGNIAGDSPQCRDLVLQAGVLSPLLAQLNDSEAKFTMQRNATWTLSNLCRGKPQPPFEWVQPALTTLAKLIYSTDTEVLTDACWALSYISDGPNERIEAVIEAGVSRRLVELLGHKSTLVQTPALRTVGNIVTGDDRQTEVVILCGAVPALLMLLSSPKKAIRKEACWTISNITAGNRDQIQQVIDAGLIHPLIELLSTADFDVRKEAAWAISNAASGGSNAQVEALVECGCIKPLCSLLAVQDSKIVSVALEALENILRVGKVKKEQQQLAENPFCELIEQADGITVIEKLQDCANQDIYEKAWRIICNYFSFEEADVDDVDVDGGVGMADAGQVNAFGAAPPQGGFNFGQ
A short description of data set [5]: MTT assay for host cell cytotoxicity. The data set is classed as cell-based. The following applies: human, HFF cells (freshly confluent), mean ± SD (n = 2). As to the method: The MTT assay was used to measure the cytotoxicity of the small molecules against the HFF cells as described. Briefly, freshly confluent HFF cells were incubated for 48 h in a 96-well culture plate at 37 °C in a humidified incubator (5% CO2 atmosphere) in the presence of increasing concentrations of compounds (total volume 200 uL). A 10 μL quantity of MTT reagent (Sigma Aldrich) prepared in complete DMEM medium was then added to each well, and incubation continued for a further 3 h. 150 μL of the medium containing the MTT reagent was then removed from each well and replaced with 150 μL DMSO. Plates were then incubated room temperature in the dark for 20 min, after which absorbance for each well was measured at 570 nm. Data were analysed in GraphPad Prism 9 software.
(Tetrazolium assays rely on reduction of a dye to a coloured formazan, in cell work by metabolically active cells.)

Data set [6] addresses T3, PfIMPα. Description: Far-UV CD spectroscopy, PfIMPα. It counts as binding. Particulars: 30 or 80 μM compound. The method, then: as §4
The target in the next data set is T4, MmIMPα:MmIMPβ1 (Mus musculus, UniProt P52293).
T4 construct: GST; made in house
In words: AlphaScreen binding assay, inhibition of MmIMPα binding to MmIMPβ1.

Data set [7] has as its target T5, MmIMPα (Mus musculus, UniProt P52293).
T5 construct: GST; made in house
In words: Intrinsic tryptophan fluorescence assay, MmIMPα. The data set is classed as binding. The following applies: pooled, mean ± SEM (n = 3); IMPα 1 µM, 340 nm. The method, then:
as §3

For data set [8], the target named is T5, MmIMPα. In words: Far-UV CD spectroscopy, MmIMPα. The data set is classed as binding. The following applies: 30 or 80 μM compound. As to the method: as §4
The mark [9] stands for this setting: single experiment of Figure 1b, quadruplet wells.
Setting [10] is: pooled, mean ± SEM (n = 3), MmIMPβ1 30 nM, IMPα 30 nM.
Setting [11] is: single typical experiment of Figure 2, quadruplet wells.
Setting [12] is: Plasmodium falciparum, 3D7, 72 h, asexual stages, pooled, mean ± SD (n = 3).
Where [13] appears, read: Plasmodium falciparum, 3D7, 72 h, single typical experiment of Figure 5, duplicate.
Setting [14] is: pooled, mean ± SEM (n = 3), IMPα 1 µM, 340 nm.
Where [15] appears, read: single typical set of measurements, Figure 4b.

T3 sequence (Q8IAW0 entry or part of it): as the sequence (Q8IAW0 entry or part of it) above
T2 sequence (A0A125YID0 entry or part of it): as the sequence (A0A125YID0 entry or part of it) above
Sequence of PfIMPα:MmIMPβ1 (Q8IAW0 entry or part of it): as the sequence (Q8IAW0 entry or part of it) above
Sequence of PfIMPα:MmIMPβ1 (P70168 whole entry, further chain, the tested form may be a part): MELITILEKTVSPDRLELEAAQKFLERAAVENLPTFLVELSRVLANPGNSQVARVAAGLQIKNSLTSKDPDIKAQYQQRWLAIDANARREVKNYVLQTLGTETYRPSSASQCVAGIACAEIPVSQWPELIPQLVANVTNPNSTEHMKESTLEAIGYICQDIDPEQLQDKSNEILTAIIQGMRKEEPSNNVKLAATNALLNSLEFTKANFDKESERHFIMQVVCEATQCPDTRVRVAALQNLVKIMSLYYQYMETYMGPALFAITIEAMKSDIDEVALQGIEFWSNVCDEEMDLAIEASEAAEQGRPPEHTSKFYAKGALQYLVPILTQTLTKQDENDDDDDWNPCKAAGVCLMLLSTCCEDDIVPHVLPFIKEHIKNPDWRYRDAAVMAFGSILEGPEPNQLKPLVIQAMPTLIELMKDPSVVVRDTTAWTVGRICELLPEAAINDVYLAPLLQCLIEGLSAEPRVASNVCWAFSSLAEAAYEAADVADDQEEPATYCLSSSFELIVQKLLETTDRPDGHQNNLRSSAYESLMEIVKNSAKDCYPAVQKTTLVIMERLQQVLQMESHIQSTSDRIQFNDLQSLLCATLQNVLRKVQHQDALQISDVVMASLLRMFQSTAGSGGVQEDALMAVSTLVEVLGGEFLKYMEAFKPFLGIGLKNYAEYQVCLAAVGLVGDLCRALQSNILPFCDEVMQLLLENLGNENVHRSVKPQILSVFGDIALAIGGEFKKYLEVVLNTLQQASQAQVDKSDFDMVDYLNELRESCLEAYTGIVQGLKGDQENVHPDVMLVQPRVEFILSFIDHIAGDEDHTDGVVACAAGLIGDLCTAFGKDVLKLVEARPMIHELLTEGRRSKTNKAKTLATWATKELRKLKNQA
Sequence of TgIMPα:MmIMPβ1 (P70168 whole entry): as the sequence (P70168 whole entry, further chain, the tested form may be a part) above
Sequence of TgIMPα:MmIMPβ1 (A0A125YID0 entry or part of it): as the sequence (A0A125YID0 entry or part of it) above

`CO/N=C1\C[C@]2(C[C@@H]3C[C@@H](C/C=C(\C)C[C@@H](C)/C=C/C=C4\CO[C@@H]5[C@H](O)C(C)=C[C@@H](C(=O)O3)[C@]45O)O2)O[C@H](/C(C)=C/C(C)C)[C@H]1C` [Moxidectin, moxidectin]: the IC50 on MmΔIBBIMPα:T-ag-NLS-GFP (pooled, mean ± SEM (n = 3), IMPα 5 nM, NLS protein 30 nM, read-out: IC50 inhibition of MmΔIBBIMPα:Tag-NLS-GFP binding) is 3.6 ± 0.5 µM; on MmΔIBBIMPα:T-ag-NLS-GFP (setting [9]) it was 2.8 µM; on PfIMPα:MmIMPβ1 (setting [10]) it was 3.4 ± 0.4 µM; at PfIMPα:MmIMPβ1 (setting [11]), 3.8 µM; in the data set with P. falciparum 3D7 strain (setting [12]) it was 1 µM; with P. falciparum 3D7 strain (setting [13]) it was 0.8 µM. The IC50 turned out to be 0.9 ± 0.1 µM in the data set with P. falciparum 3D7 strain (asexual stages, 72 h, pooled, mean ± SD (n = 3)); 2.7 ± 0.2 µM at TgIMPα:MmIMPβ1 (setting [10]); 3.2 µM on TgIMPα:MmIMPβ1 (setting [11]); 4.8 ± 0.4 µM on PfIMPα:TGS1-NLS-GFP (pooled, mean ± SEM (n = 3), IMPα 5 nM, NLS protein 30 nM); 4.6 µM on PfIMPα:TGS1-NLS-GFP (setting [9]); 35 ± 3.1 µM in [4]. The IC50 in [4] (Toxoplasma gondii) was 30 to 35 µM; at TgIMPα:T-ag-NLS-GFP (pooled, mean ± SEM (n = 3), IMPα 5 nM, NLS protein 30 nM, read-out: IC50 inhibition of TgIMPα:Tag-NLS-GFP binding), 3.8 ± 0.8 µM; at TgIMPα:T-ag-NLS-GFP (setting [9]) it was 3.6 µM; on MmIMPα:MmIMPβ1 (setting [10]), ~4 µM and 4 µM; at MmIMPα:MmIMPβ1 (setting [11]), 4.7 µM. Also, the equilibrium dissociation constant (Kd) came to 19 ± 2.2 µM on TgIMPα [1] (setting [14]); 19.3 µM on TgIMPα [1] (setting [15]); 7.8 ± 1.2 µM at PfIMPα [3] (setting [14]); 8.3 µM at PfIMPα [3] (setting [15]); 4.1 ± 0.2 µM on MmIMPα [7]. At TgIMPα [2], the “Effect on α-helicity of TgIMPα (CD spectra)” value is recorded as “concentration-dependent reduction in α-helicity”. In data set [5], this compound yielded a half-maximal cytotoxic concentration (CC50) at 48 h of around 10 µM. The “Effect on α-helicity of PfIMPα (CD spectra)” value on PfIMPα [6] is “concentration-dependent reduction in α-helicity”. Besides, the “Effect on α-helicity of MmIMPα (CD spectra)” value at MmIMPα [8] is “concentration-dependent reduction in α-helicity”.
`C[C@H]1[C@@H](O)O[C@@H]2O[C@@]3(C)CC[C@H]4[C@H](C)CC[C@@H]1[C@@]24OO3` [DHA, dihydroartemisinin]: the values for the half-maximal inhibitory concentration (IC50) in the data set with P. falciparum 3D7 strain (setting [12]) and in the data set on P. falciparum 3D7 strain (setting [13]) were 0.001 ± 0.0005 µM and 0.0007 µM, respectively.
